# Assay results reported in patent publication US20240358693A1, “METHODS OF TREATING PAIN” (Aisa Pharma, Inc., priority 2023, published 2024).
# Test system: participants with SSc-RP
# Experiment: Scleroderma Health Assessment Questionnaire (SHAQ): disability indices and visual analog scales
# Assay type: in vivo, human
# Source text: The standard, validated, patient reported outcome measures tool for SSc patients, the Scleroderma Health Assessment Questionnaire (SHAQ), will be used to assess the participant qualify of life. Details are attached in the Appendix. The participant quality of life will be scored, and a disability index calculated for each questionnaire completed by the patient at Screening and each in-clinic visit. The absolute change in participant quality of life from baseline to the end of each dosing period will be calculated similar to frequency data as before.
# The SHAQ includes a Raynaud's VAS, which will be reported at screening and each in-clinic visit. The absolute change in Raynaud-VAS, assessed by the participants response to the SHAQ question ‘In the past 7 days, how much have your Raynaud's interfered with your daily activities?’ at baseline and the end of each dosing period will be calculated similar to frequency data as before.
# The SHAQ is used to calculate a Disability Index to assess the participant qualify of life. The eight categories assessed by the Disability Index are 1) dressing and grooming, 2) arising, 3) eating, 4) walking, 5) hygiene, 6) reach, 7) grip, and 8) common daily activities. For each of these categories, patients report the amount of difficulty they have in performing two or three specific activities.
# There are four possible responses for the Disability Index questions: • Without any difficulty=0 • With some difficulty=1 • With much difficulty=2 • Unable to do=3. • The highest score reported by the patient for any component question of the eight categories determines the score for that category. • If a component question is left blank or the response is too ambiguous to assign a score, then the score for that category is determined by the remaining completed question(s). • If all component questions are blank or if more than one answer is given, then follow up with the respondent is required. • If the respondent's mark is between the response columns, then move it to the closest one. If it's directly between the two, move it to the higher one.
# Each of the disability items on the SHAQ has a companion aids/devices variable that is used to record what type(s) of assistance, if any, the participant uses for his/her usual activities. These variables (see below) are coded as follows: • 0=No assistance is needed. • 1=A special device is used by the patient in his/her usual activities. • 2=The patient usually needs help from another person. • 3=The patient usually needs BOTH a special device AND help from another person.
# The scoring variables and scoring rules permit the computation of two disability indices, the Standard Disability Index and the Alternative Disability Index.
# This question results in a new set of category scores that are computed by adjusting the score for each category, if necessary, based on the patient's use of an aid or device or assistance for that category. If either devices and/or help from another person are checked for a category, the score is set to “2”, unless the score is already “3” (i.e., scores of “0” or “1” are increased to “2”). For example, if the highest score for the dressing category is “1”, and the patient says they use a device for dressing, the computed category score would be “2”. The sum of the computed categories scores is then calculated and divided by the number of categories answered. This gives a score in the 0 to 3 range.
# The aid and device variables are not used to calculate the alternative disability index; it is calculated by adding the scores for each of the categories and dividing by the number of categories answered. This gives a score in the 0 to 3 range.
# The standard, validated, patient reported outcome measures tool for SSc patients, the SHAQ, was collected at the time points specified in the study schedules (FIG. 2 and FIGS. 4A and 4B) to assess the participant's quality of life. The SHAQ included a Raynaud's VAS that will also be reported separately.
# [1] = Pooled Cilnidipine 10 mg and Cilnidipine 10 mg + Tadalafil 5 mg (N = 9), sensitivity analysis, Modified ITT, Part A
# [2] = Pooled Cilnidipine 20 mg and Cilnidipine 20 mg + Tadalafil 5 mg (N = 7), sensitivity analysis, Modified ITT, Part A
# [3] = Pooled Cilnidipine (10 mg or 20 mg) (N = 7)
smiles,measurement,setting,value
"COCCOC(=O)C1=C(C)NC(C)=C(C(=O)OC/C=C/c2ccccc2)C1c1cccc([N+](=O)[O-])c1 (stereo not shown) [Cilnidipine, cilnidipine]","SHAQ VAS Raynaud's: Percent Change from Baseline, Mean",[1],−9.97%
same,"SHAQ VAS Raynaud's: Percent Change from Baseline, Median",[1],−4.39%
same,"SHAQ Standard Disability Index: Baseline, Mean",[2],0.554
same,"SHAQ Standard Disability Index: Baseline, Median",[2],0.375
same,"SHAQ Standard Disability Index: Change from Baseline, Mean",[2],−0.092
same,"SHAQ Standard Disability Index: Change from Baseline, Median",[2],0.000
same,"SHAQ Standard Disability Index: Day 12, Mean",[2],0.462
same,"SHAQ Standard Disability Index: Day 12, Median",[2],0.250
same,"SHAQ Standard Disability Index: Percent Change from Baseline, Mean",[2],−5.99%
same,"SHAQ Standard Disability Index: Percent Change from Baseline, Median",[2],−33.33%
same,"SHAQ VAS Breathing Problems: Baseline, Mean",[2],1.071
same,"SHAQ VAS Breathing Problems: Baseline, Median",[2],0.800
same,"SHAQ VAS Breathing Problems: Change from Baseline, Mean",[2],0.171
same,"SHAQ VAS Breathing Problems: Change from Baseline, Median",[2],0.000
same,"SHAQ VAS Breathing Problems: Day 12, Mean",[2],1.243
same,"SHAQ VAS Breathing Problems: Day 12, Median",[2],0.400
same,"SHAQ VAS Breathing Problems: Percent Change from Baseline, Mean",[2],103.99%
same,"SHAQ VAS Breathing Problems: Percent Change from Baseline, Median",[2],24.48%
same,"SHAQ VAS Finger Ulcers: Baseline, Mean",[2],1.986
same,"SHAQ VAS Finger Ulcers: Baseline, Median",[2],0.100
same,"SHAQ VAS Finger Ulcers: Change from Baseline, Mean",[2],−0.950
same,"SHAQ VAS Finger Ulcers: Change from Baseline, Median",[2],−0.050
same,"SHAQ VAS Finger Ulcers: Day 12, Mean",[2],1.367
same,"SHAQ VAS Finger Ulcers: Day 12, Median",[2],0.350
same,"SHAQ VAS Finger Ulcers: Percent Change from Baseline, Mean",[2],−15.69%
same,"SHAQ VAS Finger Ulcers: Percent Change from Baseline, Median",[2],−48.04%
same,"SHAQ VAS Intestinal Problems: Baseline, Mean",[2],0.886
same,"SHAQ VAS Intestinal Problems: Baseline, Median",[2],1.000
same,"SHAQ VAS Intestinal Problems: Change from Baseline, Mean",[2],0.271
same,"SHAQ VAS Intestinal Problems: Change from Baseline, Median",[2],0.000
same,"SHAQ VAS Intestinal Problems: Day 12, Mean",[2],1.157
same,"SHAQ VAS Intestinal Problems: Day 12, Median",[2],0.200
same,"SHAQ VAS Intestinal Problems: Percent Change from Baseline, Mean",[2],12.47%
same,"SHAQ VAS Intestinal Problems: Percent Change from Baseline, Median",[2],30.00%
same,"SHAQ VAS Overall Disease Severity: Baseline, Mean",[2],3.200
same,"SHAQ VAS Overall Disease Severity: Baseline, Median",[2],2.900
same,"SHAQ VAS Overall Disease Severity: Change from Baseline, Mean",[2],−1.186
same,"SHAQ VAS Overall Disease Severity: Change from Baseline, Median",[2],−1.500
same,"SHAQ VAS Overall Disease Severity: Day 12, Mean",[2],2.014
same,"SHAQ VAS Overall Disease Severity: Day 12, Median",[2],1.200
same,"SHAQ VAS Overall Disease Severity: Percent Change from Baseline, Mean",[2],−44.99%
same,"SHAQ VAS Overall Disease Severity: Percent Change from Baseline, Median",[2],−44.74%
same,"SHAQ VAS Pain: Baseline, Mean",[2],2.667
same,"SHAQ VAS Pain: Baseline, Median",[2],2.550
same,"SHAQ VAS Pain: Change from Baseline, Mean",[2],−0.700
same,"SHAQ VAS Pain: Change from Baseline, Median",[2],−0.650
same,"SHAQ VAS Pain: Day 12, Mean",[2],2.000
same,"SHAQ VAS Pain: Day 12, Median",[2],2.100
same,"SHAQ VAS Pain: Percent Change from Baseline, Mean",[2],−33.40%
same,"SHAQ VAS Pain: Percent Change from Baseline, Median",[2],−51.06%
same,"SHAQ VAS Raynaud's: Baseline, Mean",[2],2.314
same,"SHAQ VAS Raynaud's: Baseline, Median",[2],0.900
same,"SHAQ VAS Raynaud's: Change from Baseline, Mean",[2],−1.014
same,"SHAQ VAS Raynaud's: Change from Baseline, Median",[2],−0.300
same,"SHAQ VAS Raynaud's: Day 12, Mean",[2],1.300
same,"SHAQ VAS Raynaud's: Day 12, Median",[2],0.600
same,"SHAQ VAS Raynaud's: Percent Change from Baseline, Mean",[2],−34.71%
same,"SHAQ VAS Raynaud's: Percent Change from Baseline, Median",[2],−40.67%
same,"SHAQ patient reported disease severity, Change from Baseline, Mean",[3],−1.214
same,"SHAQ patient reported disease severity, Change from Baseline, Median",[3],−1.500
same,"SHAQ patient reported disease severity, In-Clinic Visit (Day 12), Mean",[3],1.486
